From patent publication US20260097047A1, “Small molecule inhibitors of the ribosome biogenesis factor NVL2” (Board of Regents, The University of Texas System, priority 2023, published 2026) come the findings set out here.

The first experiment deals with HCT116 cells. As to the kind of experiment: Cell viability assay (CellTiter-Glo, 72 hours) in HCT116 human colorectal cancer cells. Type of experiment: cell-based. The settings on record: Homo sapiens, HCT-116; Table 5; HCT116, 72 hours; read-out: Activity. The method, boiled down:
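Ten-point IC50 came from an asymmetric five-parameter fit of luminescence corrected to vehicle wells. ATP content was measured by CellTiter-Glo 72 h after dosing at 37 °C. Cells were seeded at 2,000/well the day before, with 0.5% DMSO in all wells.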
(In ATP-based viability assays light output follows the ATP content of the culture.)
With `CC#CCN1C(=O)c2ccccc2Sc2cc(Nc3ncc(C#N)cc3C)ccc21` [6-((10-(But-2-yn-1-yl)-11-oxo-10,11-dihydrodibenzo[b,f][1,4]thiazepin-7-yl)amino)-5-methylnicotinonitrile], the IC50 was under 500 nM.

For `CC#CCN1C(=O)c2ccccc2Sc2cc(Nc3cnn(C)c3)ccc21` [10-(But-2-yn-1-yl)-7-((1-methyl-1H-pyrazol-4-yl)amino)dibenzo[b,f][1,4]thiazepin-11 (10H)-one], the IC50 is under 500 nM. Turning to `CCC/C=C/CN1C(=O)c2ccccc2Sc2cc(Nc3cc4ccccc4cn3)ccc21` [(E)-10-(Hex-2-en-1-yl)-7-(isoquinolin-3-ylamino)dibenzo[b,f][1,4]thiazepin-11 (10H)-one], the IC50 was under 500 nM. Consider `CCC/C=C/CN1C(=O)c2ccccc2Sc2cc(Nc3cc(C(C)C)ccn3)ccc21` [(E)-10-(Hex-2-en-1-yl)-7-((4-isopropylpyridin-2-yl)amino)dibenzo[b,f][1,4]thiazepin-11 (10H)-one], for which the IC50 was under 500 nM.

Turning to `CC#CCN1C(=O)c2ccc(F)cc2Sc2cc(Nc3nccnc3C)ccc21` [10-(But-2-yn-1-yl)-3-fluoro-7-((3-methylpyrazin-2-yl)amino)dibenzo[b,f][1,4]thiazepin-11 (10H)-one], the IC50 is under 500 nM. Still for that read-out and setting: the result for `CC#CCN1C(=O)c2ccccc2Sc2cc(Nc3cc(C)cnn3)ccc21` [10-(But-2-yn-1-yl)-7-((5-methylpyridazin-3-yl)amino)dibenzo[b,f][1,4]thiazepin-11 (10H)-one] reads under 500 nM; that for `CC#CCN1C(=O)c2ccccc2Sc2cc(Nc3ncnc(C#N)n3)ccc21` [4-((10-(But-2-yn-1-yl)-11-oxo-10,11-dihydrodibenzo[b,f][1,4]thiazepin-7-yl)amino)-1,3,5-triazine-2-carbonitrile], 1000 to 5000 nM.

Turning to `CC#CCN1C(=O)c2ccccc2Sc2cc(Nc3ncccc3C(F)(F)F)ccc21` [10-(But-2-yn-1-yl)-7-((3-(trifluoromethyl)pyridin-2-yl)amino)dibenzo[b,f][1,4]thiazepin-11 (10H)-one], the IC50 is under 500 nM.

Still in this experiment, the particulars now being: Homo sapiens, HCT-116; Table 6; HCT116, 72 hours; read-out: Activity.
As to `CC#CCN1C(=O)c2ccccc2Sc2cc(NC3COCC3OC)ccc21` (stereo not shown) [10-(But-2-yn-1-yl)-7-((4-methoxytetrahydrofuran-3-yl)amino)dibenzo[b,f][1,4]thiazepin-11 (10H)-one], the IC50 is under 500 nM.

The same experiment, now with this note: Table 2; HCT116, 72 hours; read-out: Activity.
In the case of `CC#CCN1C(=O)c2ccccc2Sc2cc(NC(=S)N3CCCCC3)ccc21`, the IC50 is under 500 nM. For `CC#CCN1C(=O)c2ccccc2Sc2cc(NC(=S)N3CCC3)ccc21` [Table 2: —CH2CCMe; azetidin-1-yl; CH; CH], the IC50 is under 500 nM.

The same experiment, now with this note: Table 3; HCT116, 72 hours; read-out: Activity.
`CC#CCN1C(=O)c2ccccc2Sc2cc(NC(=O)NC3CC(COC)C3)cnc21` (stereo not shown) [Table 3: —CH2CCMe; 3-MeOCH2-cBu; CH/N]: the IC50 was under 500 nM.

Take `CC#CCN1C(=O)c2ccccc2Sc2cc(NC(=O)Nc3ccc(OC)cc3)cnc21` [Table 3: —CH2CCMe; 4-MeOPh; CH/N]: the IC50 is under 500 nM.

The same experiment, now with this note: Table 4; HCT116, 72 hours; read-out: Activity.
As for `CC#CCN1C(=O)c2ccccc2Sc2cc(NC(=S)N[C@H]3C[C@H](OC)C3)ccc21` [Table 4: —CH2CCMe; trans-3-MeOcBu; CH], the IC50 was under 500 nM. In the case of `CC#CCN1C(=O)c2ccccc2Sc2cc(NC(=S)Nc3ccc4scnc4c3)cnc21`, the IC50 was under 500 nM.

The experiment is the same for the next values; noted with them: Table 5; HCT116, 72 hours; read-out: Activity.
For `CC#CCN1C(=O)c2ccccc2Sc2cc(Nc3ncc(C#N)cc3C)cnc21`, the IC50 was under 500 nM. As to `CC=CCN1C(=O)c2ccccc2Sc2cc(Nc3ncccc3F)ccc21`, the IC50 is under 500 nM. For `CCC/C=C/CN1C(=O)c2ccccc2Sc2cc(Nc3cc(C(F)(F)F)ccn3)ccc21` [(I)-10-(Hex-2-en-1-yl)-7-((4-(trifluoromethyl)pyridin-2-yl)amino)dibenzo[b,f][1,4]thiazepin-11 (10H)-one], the IC50 fell in the range of 1000 to 5000 nM. As to `CCCC=CCN1C(=O)c2ccccc2Sc2cc(Nc3nccnc3C)cnc21`, the IC50 was under 500 nM.

For the compound `CC=CCN1C(=O)c2ccccc2Sc2cc(Nc3nccnc3C)ccc21`, the IC50 was under 500 nM.

In the case of `CC=CCN1C(=O)c2ccccc2Sc2cc(Nc3ncccc3C#N)cnc21`, the IC50 was under 500 nM. `CC#CCN1C(=O)c2ccccc2Sc2cc(Nc3nnccc3C#N)cnc21`: the IC50 is under 500 nM.

The experiment is the same for the next values; noted with them: Table 6; HCT116, 72 hours; read-out: Activity.
For `CC#CCN1C(=O)c2ccccc2Sc2cc(NC3CCCOC3)cnc21` (stereo not shown), the IC50 is under 500 nM.

In the case of `O=C1c2ccccc2Sc2cc(NC3CC(O)C3)ccc2N1CC#CCl` (stereo not shown) [Table 6: —CH2CCCl; 3-HOcBu; CH/CH; S], the IC50 is under 500 nM. `CC#CCN1C(=O)c2ccccc2Sc2cc(NC34CC(C3)C4)cnc21`: the IC50 is under 500 nM. Regarding `C#CCN1C(=O)c2ccccc2Sc2cc(NC3COC3)cnc21` [Table 6: —CH2CCH; oxetan-3-yl; CH/N; S], the IC50 was under 500 nM.

The experiment is the same for the next values; noted with them: Table 7; cell viability assay, CellTiter-Glo, 72 hours; scaffold drawing 42 with R^2, R^3, X/Y, Z; read-out: Activity.
For `COCCN1C(=O)c2ccccc2Sc2cc(NC(=O)C3CC34CC4)ccc21` (stereo not shown) [—(CH2)2OMe; spiro[2.2]pentanyl; CH/CH; S], the IC50 is 1000 to 5000 nM. Turning to `COCCN1C(=O)c2ccccc2Sc2cc(NC(=O)c3ccn4ccnc4c3)ccc21`, the IC50 is 1000 to 5000 nM. On the same count and under the same terms, the result for `CCCC=CCN1C(=O)c2ccccc2Sc2cc(NC(=O)c3ccoc3)ccc21` [—CH2CH═CHPr; furan-3-yl; CH/CH; S] reads under 500 nM. The same measure, in the same setting: the result for `CCCOc1ccc(C(=O)Nc2ccc3c(c2)Sc2ccccc2C(=O)N3CCOC)cc1` [—(CH2)2OMe; 4-PrOPh; CH/CH; S] reads 1000 to 5000 nM; that for `C#CCOCCN1C(=O)c2ccccc2Sc2cc(NC(=O)c3ccc4scnc4c3)ccc21`, under 500 nM.

In the case of `COCCN1C(=O)c2ccccc2Sc2cc(NC(C)=O)ccc21` [—(CH2)2OMe; Me; CH/CH; S], the IC50 was 1000 to 5000 nM.

The experiment is the same for the next values; noted with them: Table 8; analogs of scaffold drawing 43 defined by R^2, R^3, X/Y, W; read-out: Activity (IC50 class, cell viability assay).
As to `O=C(Nc1ccc2c(c1)Sc1ccc(F)cc1C(=O)N2CC#CC1CC1)C1CC2(CC(O)C2)C1` (stereo not shown), the IC50 is under 500 nM. Turning to `CC#CCN1C(=O)c2cc(F)ccc2Sc2cc(NC(=O)C3CC(COC)C3)cnc21` (stereo not shown) [—CH2CCMe; 3-MeOCH2-cBu; CH/CF; N], the IC50 is under 500 nM.

Turning to `O=C(CC1COC1)Nc1ccc2c(c1)Sc1ccccc1C(=O)N2CC#CC1CC1` [—CH2CC^cPr; (oxetan-3-yl)CH2; CH/CH; CH], the IC50 was under 500 nM. On the same count and under the same terms, the result for `O=C(Nc1cnc2c(c1)Sc1ccccc1C(=O)N2CC#CC(F)(F)F)C1CC2(CC(=NO)C2)C1` (stereo not shown) reads under 500 nM. The same measure, in the same setting: the result for `CC#CCN1C(=O)c2cc(F)ccc2Sc2cc(NC(=O)C=CCOC)cnc21` [—CH2CCMe; CH—═CHCH2OMe; CH/CF; N] reads under 500 nM; that for `CC#CCN1C(=O)c2ccccc2Sc2cc(NC(=O)C3CCCC3)cnc21` [—CH2CCMe; cPent; CH/CH; N], under 500 nM; that for `CC#CCN1C(=O)c2ccccc2Sc2cc(NC(=O)CC3COC3)cnc21` [—CH2CCMe; (oxetan-3-yl)CH2; CH/CH; N], under 500 nM. With `CC#CCN1C(=O)c2cc(F)ccc2Sc2cc(NC(=O)C3CC4(CC(=NOC)C4)C3)ccc21` (stereo not shown), the IC50 is under 500 nM. In the case of `C#CCN1C(=O)c2cc(F)ccc2Sc2cc(NC(=O)[C@H]3C[C@H](OC)C3)ccc21` [—CH2CCH; trans-3-MeOcBu; CH/CF; CH], the IC50 is under 500 nM.

On to `CC#CCN1C(=O)c2ccc(Cl)cc2Sc2cc(NC(=O)CC3COC3)ccc21` [—CH2CCMe; (oxetan-3-yl)CH2; CCl/CH; CH], for which the IC50 is under 500 nM. The same measure, in the same setting: the result for `CC#CCN1C(=O)c2ccc(Cl)cc2Sc2cc(NC(=O)[C@H]3C[C@H](O)C3)cnc21` [—CH2CCMe; trans-3-OH-cBu; CCl/CH; N] reads under 500 nM; that for `O=C1c2ccccc2Sc2cc(NC(=O)[C@H]3C[C@@H](O)C3)cnc2N1CC#CC1CC1` [—CH2CC^cPr; cis-3-OH-cBu; CH/CH; N], under 500 nM.

Take `CC#CCN1C(=O)c2ccccc2Sc2cc(NC(=O)C34CC(C3)C4)cnc21`: the IC50 is under 500 nM. In the case of `CC#CCN1C(=O)c2ccc(Cl)cc2Sc2cc(NC(=O)C3CCOC3)cnc21` (stereo not shown), the IC50 was under 500 nM. Take `O=C(Nc1ccc2c(c1)Sc1cc(Cl)ccc1C(=O)N2CC#CCl)C1CC1CO` (racemic) [—CH2CCCl; trans-2-HOCH2-cPr; CCl/CH; CH]: the IC50 is under 500 nM. Take `CC#CCN1C(=O)c2ccc(Cl)cc2Sc2cc(NC(=O)C3CCOC3)ccc21` (stereo not shown): the IC50 is under 500 nM. For `CC#CCN1C(=O)c2cc(F)ccc2Sc2cc(NC(=O)[C@H]3C[C@@H](OC)C3)ccc21` [—CH2CCMe; cis-3-MeOcBu; CH/CF; CH], the IC50 was under 500 nM. For `CC#CCN1C(=O)c2ccccc2Sc2cc(NC(=O)C34CC(F)(C3)C4)ccc21`, the IC50 is under 500 nM. As to `CC#CCN1C(=O)c2ccccc2Sc2cc(NC(=O)C(C)CCOC)ccc21` (stereo not shown) [—CH2CCMe; MeO(CH2)2CHMe-; CH/CH; CH], the IC50 was under 500 nM. For the compound `C#CCN1C(=O)c2cc(F)ccc2Sc2cc(NC(=O)C3CC(COC)C3)ccc21` (stereo not shown) [—CH2CCH; 3-MeOCH2-cBu; CH/CF; CH], the IC50 is under 500 nM. Turning to `CC#CCN1C(=O)c2ccccc2Sc2cc(NC(=O)C34CC(C#N)(C3)C4)ccc21`, the IC50 is under 500 nM.

Staying with this experiment, now noted: Table 9; HCT116, 72 hours; read-out: Activity.
Regarding `COC1CC(C(=O)Nc2ccc3c(c2)C(C#N)c2ccccc2C(=O)N3CC#CCF)C1` (stereo not drawn) [Table 9: —CH2CCCH2F; cis-3-MeOcBu; CHCN], the IC50 was under 500 nM. Turning to `CO[C@H]1C[C@@H](C(=O)Nc2ccc3c(c2)Cc2ccccc2C(=O)N3CC#CC2CC2)C1` [Table 9: —CH2CCCPr; cis-3-MeOcBu; CH2], the IC50 was under 500 nM. `COC12CC(C(=O)Nc3ccc4c(c3)C(C)c3ccccc3C(=O)N4CC#CC3CC3)(C1)C2` (stereo not shown): the IC50 is under 500 nM.

On to `CC#CCN1C(=O)c2ccccc2C(C)c2cc(NC(=O)CCCO)ccc21` (stereo not shown) [Table 9: —CH2CCMe; (CH2)3OH; CHMe], for which the IC50 is under 500 nM.

Staying with this experiment, now noted: cell viability assay; Table 10 analogs of scaffold drawing 45 defined by R2, R3, X/Y, W; read-out: Activity.
As for `CC#CCN1C(=O)c2ccc(Cl)cc2Sc2cc(NC(=O)C3CC4(CC(O)C4)C3)ccc21` (stereo not shown), the IC50 was under 500 nM.
